According to patent US20230149381A1, “BREAST CANCER THERAPEUTIC AGENT” (Eisai R&D Management Co., Ltd., priority 2020, published 2023):

Key:
[1] = system: human breast cancer patient derived tumor (OD-BRE-0438); experiment: Growth inhibiting effect of compound A on patient-derived tumor graft in mice (Reference Example 1, no pretreatment); type: in vivo; settings: NOD-SCID mice
Experimental: (§1) The long and short diameters of the tumors were measured using an electronic digital caliper (Digimatic™ caliper by Mitsutoyo Corp.). The tumor volumes were calculated by the following formula.
(§2) Tumor volume (mm^3)=Long diameter (mm)×short diameter (mm)×short diameter (mm)/2
Reference Example 1 Growth inhibiting effect of compound A on human breast cancer patient derived tumor (OD-BRE-0438)
The antitumor effect of administering compound A was evaluated using NOD-SCID mice (NOD.CB17-Prkdcscid/J, female, Charles River Japan), with 6 mice per group.
Tumor slices were grafted under the mouse skin and subcultured. The tumors excised from the mice were cut to about 4 mm-square, and a trocar ((φ3.5 mm) was used for grafting under the skin of the right flank of each mouse, for evaluation of the antitumor effect.
A 1 mg/mL solution of β-estradiol (FujiFilm-Wako) was prepared with 99.5% ethanol (FujiFilm-Wako). It was then adjusted to a final concentration of […] using supply-use sterilized water. The mice were given free access to food from the day of tumor grafting until the end of the test.
Compound A was dissolved in purified water to a concentration of 2.5 mg/mL. On the 32nd day after tumor grafting, the mice were divided into groups in such a manner that the average tumor volumes were approximately the same in each group. The tumor volumes were calculated by the same method as Example 1.
Compound A was orally administered to the mice in each group at a dose of 50 mg/kg (20 mL/kg), once per day for 14 days. The control group was untreated.
The tumor volume and body weight of each mouse were measured on day 3, 7, 10 and 14 after starting administration of compound A. The changes in mean tumor volume in each group are shown in Table 2 and FIG. 2.

[2] = system: human breast cancer patient-derived tumor (OD-BRE-0438); experiment: Growth inhibition effect of compound A after palbociclib and fulvestrant administration, patient-derived tumor graft in mice; type: in vivo; settings: NOD-SCID mice, after 14 days palbociclib + fulvestrant
Experimental: Example 1 Growth inhibition effect of compound A after palbociclib and fulvestrant administration for human breast cancer patient-derived tumor (OD-BRE-0438) Using NOD-SCID mice (NOD.CB17-Prkdcscid/J, female, Charles River Japan), with 5 to 6 mice per group, the antitumor effect of administering compound A after completion of an administration period with palbociclib and fulvestrant was evaluated.
OD-BRE-0438 is a tumor line from an estrogen receptor-positive breast cancer patient, established by Oncodesign Co. The tumor slices were grafted under the mouse skin and subcultured. The tumors excised from the mice were cut to about 4 mm-square, and a trocar (φ3.5 mm) was used for grafting under the skin of the right flank of each mouse.
A 1 mg/mL solution of β-estradiol (FujiFilm-Wako) was prepared with 99.5% ethanol (FujiFilm-Wako). It was then adjusted to a final concentration of 2.5 μg/mL using supply-use sterilized water. The mouse were given free access to food from the day of tumor grafting until the end of the test.
as §1, §2
Commercially available palbociclib isethionate (Selleck Chemicals) was adjusted to 10 mg/mL concentration with 50 mM sodium lactate buffer (pH 4.0). A commercially available fulvestrant formulation (trade name: Faslodex Intramuscular Injection 250 mg, by AstraZeneca) was used directly.
Palbociclib and fulvestrant administration was initiated from the 26th day after tumor grafting. Palbociclib was orally administered once per day for 14 days at a dosage of 100 mg/kg (10 mL/kg). Fulvestrant was hypodermically injected on the 26th and 33rd day, at a dosage of 250 mg/kg (5 mL/kg).
On the 40th day, the mice were divided into groups in such a manner that the average tumor volumes were approximately the same in each group. The control group consisted of 6 mice, and the compound A-administered group consisted of 5 mice, at different dosages.
Compound A was dissolved in purified water to a concentration of 2.5 mg/mL. Compound A was orally administered to the mice in each group at a dose of 25 mg/kg (10 mL/kg) or 50 mg/kg (20 mL/kg), once per day for 14 days. The control group was untreated.
The tumor volume and body weight of each mouse were measured on day 3, 7, 10 and 14 after starting administration of compound A. The changes in mean tumor volume in each group are shown in Table 1 and FIG. 1.

[3] = Day 0 (baseline at grouping), compound A 50 mg/kg oral once per day
[4] = Day 3, compound A 50 mg/kg oral once per day
[5] = Day 7, compound A 50 mg/kg oral once per day
[6] = Day 10, compound A 50 mg/kg oral once per day
[7] = Day 14, compound A 50 mg/kg oral once per day

CNC(=O)n1ccc2cc(Oc3ccnc(NC(=O)c4ccc(C5CCN(CCO)CC5)cc4)c3)c(OCCOC)cc21 [Compound A, 5-((2-(4-(1-(2-hydroxyethyl)piperidin-4-yl)benzamide)pyridin-4-yl)oxy)-6-(2-methoxyethoxy)-N-methyl-1H-indole-1-carboxamide]
mean tumor volume [1, 3]: 234.1 mm^3
mean tumor volume [1, 4]: 267.0 mm^3
mean tumor volume [1, 5]: 338.8 mm^3
mean tumor volume [1, 6]: 380.8 mm^3
mean tumor volume [1, 7]: 403.4 mm^3
mean tumor volume ([2]; Day 0 (baseline at grouping), compound A 25 mg/kg oral once per day): 261.4 mm^3
mean tumor volume [2, 3]: 262.6 mm^3
mean tumor volume ([2]; Day 3, compound A 25 mg/kg oral once per day): 211.9 mm^3
mean tumor volume [2, 4]: 174.8 mm^3
mean tumor volume ([2]; Day 7, compound A 25 mg/kg oral once per day): 167.6 mm^3
mean tumor volume [2, 5]: 136.1 mm^3
mean tumor volume ([2]; Day 10, compound A 25 mg/kg oral once per day): 138.3 mm^3
mean tumor volume [2, 6]: 110.4 mm^3
mean tumor volume ([2]; Day 14, compound A 25 mg/kg oral once per day): 134.1 mm^3
mean tumor volume [2, 7]: 96.6 mm^3
